# In patent US20230066946A1, “1,5-DIPHENYLPYRAZOLYL-3-OXYALKYL ACIDS AND 1-PHENYL-5-THIENYLPYRAZOLYL-3-OXYALKYL ACIDS AND THE USE THEREOF FOR CONTROL OF UNWANTED PLANT GROWTH” (Bayer Aktiengesellschaft, priority 2019, published 2023):
# Key:
# SETVI [1] = assay: Pre-emergence herbicidal action against SETVI; type: in vivo, Setaria viridis; settings: 1280 g/ha, scored visually after about 3 weeks vs untreated controls
# Summary of the method: (§1)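 Greenhouse pot test on sown, soil-covered weed seeds; spray of WP or EC formulation at 1280 or 320 g/ha onto covering soil. Effect rated visually after about 3 weeks (0% = like control, 100% = dead).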
# AMARE [2] = assay: Pre-emergence herbicidal action against AMARE; type: in vivo, Amaranthus retroflexus; settings: scored visually after about 3 weeks vs untreated controls; for Pre-emergence action at 320 g/ha against AMARE in %: 100% = plants have died, 0% = like control plants; for Pre-emergence action against AMARE in %: 1280 g/ha
# Summary of the method: as §1
# VERPE [3] = assay: Pre-emergence herbicidal action against VERPE; type: in vivo, Veronica persica; settings: 320 g/ha, scored visually after about 3 weeks vs untreated controls
# Text: (§2) Seeds of mono- and dicotyledonous weed plants are placed in plastic pots in sandy loam soil (doubly sown with one species each of mono- or dicotyledonous weed plants per pot) and covered with soil. The compounds of the invention, formulated in the form of wettable powders (WP) or as emulsion concentrates (EC), are then applied onto the surface of the covering soil as aqueous suspension or emulsion with addition of 0.5% additive at a water application rate equivalent to 600 litres per hectare. After the treatment, the pots are placed in a greenhouse and kept under good growth conditions for the trial plants. After about 3 weeks, the effect of the preparations is scored visually in comparison with untreated controls as percentages. For example, 100% activity=the plants have died, 0% activity=like control plants. [table] Tables 4.1-4.15 below show the effects of selected compounds of the general formula (I) according to Tables 1 to 3 on various harmful plants at an application rate corresponding to 1280 or 320 g/ha, which have been obtained by the aforementioned experimental method.
# ECHCG [4] = assay: Pre-emergence herbicidal action against ECHCG; type: in vivo, Echinochloa crus-galli; settings: scored visually after about 3 weeks vs untreated controls, 100% = plants have died, 0% = like control plants
# Text: as §2
# AMARE [5] = assay: Post-emergence herbicidal action against AMARE; type: in vivo, Amaranthus retroflexus; settings: visual rating about 3 weeks after treatment
# Summary of the method: (§3)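 Herbicidal effect, rated visually about 3 weeks after treatment as percent versus untreated controls. Test plants in sandy loam had received a foliar application at the one-leaf stage of 1280 or 320 g/ha, formulated as WP or EC with 0.5% additive in 600 litres per hectare water.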
# STEME [6] = assay: Pre-emergence herbicidal action against STEME; type: in vivo, Stellaria media; settings: scored visually after about 3 weeks vs untreated controls
# Summary of the method: as §1
# PHBPU = assay: Post-emergence herbicidal action against PHBPU; type: in vivo, Pharbitis purpurea; settings: 320 g/ha, visual rating about 3 weeks after treatment
# Protocol: (§4) [table] Seeds of mono- and dicotyledonous weed plants are placed in plastic pots in sandy loam soil (twin sowing with one species each of mono- or dicotyledonous weed plants per pot), covered with soil and cultivated in a greenhouse under controlled growth conditions. 2 to 3 weeks after sowing, the test plants are treated at the one-leaf stage. The compounds of the invention, formulated in the form of wettable powders (WP) or as emulsion concentrates (EC), are applied to the green parts of the plants as aqueous suspension or emulsion with addition of 0.5% additive at a water application rate equivalent to 600 litres per hectare. After the test plants have been kept in the greenhouse under optimum growth conditions for about 3 weeks, the activity of the preparations is rated visually in comparison to untreated controls. For example, 100% activity=the plants have died, 0% activity=like control plants. Tables 5.1-5.16 below show the effects of selected compounds of the general formula (I) according to Tables 1 to 3 on various harmful plants at an application rate corresponding to 1280 or 320 g/ha, which have been obtained by the aforementioned experimental method.
# POLCO [7] = assay: Post-emergence herbicidal action against POLCO; type: in vivo, Polygonum convolvulus; settings: 320 g/ha, visual rating about 3 weeks after treatment
# Protocol: as §4
# VERPE [8] = assay: Post-emergence herbicidal action against VERPE; type: in vivo, Veronica persica; settings: 320 g/ha, visual rating about 3 weeks after treatment
# Protocol: as §4
# MATIN = assay: Post-emergence herbicidal action against MATIN; type: in vivo, Matricaria inodora; settings: visual rating about 3 weeks after treatment
# Summary of the method: as §3
# VIOTR = assay: Post-emergence herbicidal action against VIOTR; type: in vivo, Viola tricolor; settings: 320 g/ha, visual rating about 3 weeks after treatment
# Protocol: as §4
# POLCO [9] = assay: Pre-emergence herbicidal action against POLCO; type: in vivo, Polygonum convolvulus; settings: 320 g/ha, scored visually after about 3 weeks vs untreated controls
# Text: as §2
# STEME [10] = assay: Post-emergence herbicidal action against STEME; type: in vivo, Stellaria media; settings: visual rating about 3 weeks after treatment
# Summary of the method: as §3
# SETVI [11] = assay: Post-emergence herbicidal action against SETVI; type: in vivo, Setaria viridis; settings: 1280 g/ha, post-emergence at one-leaf stage, rated visually after about 3 weeks vs untreated controls
# Protocol: as §4
# ECHCG [12] = assay: Post-emergence herbicidal action against ECHCG; type: in vivo, Echinochloa crus-galli; settings: 1280 g/ha, post-emergence at one-leaf stage, rated visually after about 3 weeks vs untreated controls
# Protocol: as §4
SMILES,Pre-emergence action against SETVI in % (SETVI [1]),Pre-emergence action at 320 g/ha against AMARE in % (AMARE [2]),Pre-emergence action against AMARE in % (AMARE [2]),Pre-emergence action against VERPE in % (VERPE [3]),Pre-emergence action at 1280 g/ha against ECHCG in % (ECHCG [4]),Post-emergence action against AMARE in % (AMARE [5]; 320 g/ha),Post-emergence action against AMARE in % (AMARE [5]; 1280 g/ha),Pre-emergence action against STEME in % (STEME [6]; 1280 g/ha),Post-emergence action against PHBPU in % (PHBPU),Post-emergence action against POLCO in % (POLCO [7]),Post-emergence action against VERPE in % (VERPE [8]),Post-emergence action against MATIN in % (MATIN; 320 g/ha),Post-emergence action against VIOTR in % (VIOTR),Pre-emergence action against POLCO in % (POLCO [9]),Post-emergence action against STEME in % (STEME [10]; 1280 g/ha),Post-emergence action against MATIN in % (MATIN; 1280 g/ha),Post-emergence action against SETVI in % (SETVI [11]),Post-emergence action against STEME in % (STEME [10]; 320 g/ha),Post-emergence action against ECHCG in % (ECHCG [12]),Pre-emergence action against STEME in % (STEME [6]; 320 g/ha)
C=CCNC(=O)COc1nn(-c2ccccc2)c(-c2ccc(F)cc2)c1Br [III-004],100%,80%,100%,100%,100%,80%,100%,100%,80%,80%,–,–,–,–,–,–,–,–,–,–
O=C(O)COc1nn(-c2ccccc2F)c(-c2ccccc2)c1Br [I-082],–,90%,–,80%,–,80%,–,–,90%,–,80%,80%,100%,80%,–,–,–,–,–,–
COC(=O)COc1nn(-c2ccc(Cl)cc2)c(-c2ccccc2)c1Cl [I-001],–,–,–,–,–,–,–,–,–,–,–,–,–,90%,–,–,–,–,–,–
"COC(=O)C(C)Oc1nn(-c2ccccc2)c(-c2cc(F)cc(F)c2)c1Cl (centres unmarked) [I-165, Methyl 2-{[4-chloro-5-(3,5-difluorophenyl)-1-phenyl-1H-pyrazol-3-yl]oxy}propanoate]",100%,90%,100%,100%,–,–,100%,100%,80%,80%,80%,–,80%,–,100%,100%,90%,–,–,–
CCOC(=O)COc1nn(-c2ccc(F)cc2F)c(-c2ccccc2)c1Cl [I-100],100%,100%,100%,100%,100%,80%,90%,100%,90%,90%,90%,80%,100%,–,90%,90%,–,80%,90%,90%
